{"source": "patent US20190350955A1", "about": "“METHODS AND PHARMACEUTICAL COMPOSITIONS FOR THE TREATMENT OF CARDIOMYOPATHIES” (INSERM (Institut National de la Sante et de la Recherche …, priority 2016, published 2019)", "key": {"control mice": {"tested_on": "control mice", "assay": "Echocardiography of control (Sf/Sf) mice on NR diet", "type": "in vivo, mouse", "details": "D45 to D47", "from_the_text": "Transgenic mice. All experiments with animals conformed to the Directive 2010/63/EU of the European Parliament and were approved by the ethics committee Charles Darvin #5 (agreement 00369.01). SRF^HKO mice bear the tamoxifen-inducible α-MHC-MerCrMer transgene and the Siffloxed allele (Sf/Sf) as described previously (Parlakian et al. (2005). Temporally controlled onset of dilated cardiomyopathy through disruption of the SRF gene in adult heart. Journal 112, 2930-2939; Tritsch et al. (2013). An SRF/miR-1 axis regulates NCX1 and Annexin A5 protein levels in the normal and failing heart. Journal 98, 372-380). Transgenic mice have been bred for more than 20 generations in C57BL/6N background. […]\nEchocardiography was performed on lightly anesthetized mice given isoflurane (induction with 2% isoflurane 100% O2. and maintained with 0.5% isoflurance 100% O2). Non-invasive measurements of left ventricular dimensions were evaluated using Doppler echocardiography (Vivid 7 Dimension/Vivid7 PRO; GE Medical Systems) with a probe ultrasound frequency range of 9-14 MHz. […] LV fractional shortening (FS) was calculated using the formula: (LVEDD−LVESD)/LVEDD×100. LV myocardial volume (LVV), LV end-diastolic volume (EDV), and end-systolic volume (ESV) were calculated using a half-ellipsoid model of the LV. From these volumes, LV ejection fraction (EF) was calculated using, the formula: (EDV−ESV)/EDV×100. […]"}, "SRF^HKO mice": {"tested_on": "SRF^HKO mice", "assay": "Echocardiography of SRF HKO mice on NR diet", "type": "in vivo, mouse", "from_the_text": "Transgenic mice. All experiments with animals conformed to the Directive 2010/63/EU of the European Parliament and were approved by the ethics committee Charles Darvin #5 (agreement 00369.01). SRF^HKO mice bear the tamoxifen-inducible α-MHC-MerCrMer transgene and the Siffloxed allele (Sf/Sf) as described previously (Parlakian et al. (2005). Temporally controlled onset of dilated cardiomyopathy through disruption of the SRF gene in adult heart. Journal 112, 2930-2939; Tritsch et al. (2013). An SRF/miR-1 axis regulates NCX1 and Annexin A5 protein levels in the normal and failing heart. Journal 98, 372-380). Transgenic mice have been bred for more than 20 generations in C57BL/6N background. The mice were housed in standard animal facility (CEF. Hôpital Pitié Salpétrière, agreement A-75-13-15, 75013 Paris), under a 12-h dark/light cycle. Tamoxifen (Sigma T5648) was administrated by i.p. injection at a dose of 0.7 mg diluted in 100 μl peanut oil at day (D) 0, D1 and D2. (Sf/Sf) littermates injected with tamoxifen at the same time than mutant were used as controls.\nSRF^HKO and control (Sf/Sf) mice were administered either rodent maintenance SAFE A04 diet containing 3.10% crude fat. 16.10% crude proteins. 26% starch and 1.9% sugar (Scientific Animal Food Engineering, Paris, France) or SAFE # A04 diet supplemented with NR. NR was provided by Chromadex under brand name NIAGEN (Irvine Calif. USA). The soft pellets were manually prepared every 5 days by mixing 1.65 g of NR into 500 g of powdered SAFE A04 diet and 235 ml of water to reach 2.24 mg of NR/g (wet weight). Control diet was prepared in the same way omitting NR. Mice had ad libitum access to food and water. Mice (average body weight 31.3±0.82 g, no difference between groups) consumed an average of 6 g of soft food per day, reaching a daily intake of 450 mg NR/kg. No difference in food intake was observed between SRF^HKO and control mice.\nEchocardiography was performed on lightly anesthetized mice given isoflurane (induction with 2% isoflurane 100% O2. and maintained with 0.5% isoflurance 100% O2). Non-invasive measurements of left ventricular dimensions were evaluated using Doppler echocardiography (Vivid 7 Dimension/Vivid7 PRO; GE Medical Systems) with a probe ultrasound frequency range of 9-14 MHz. The two-dimensionally guided time-motion recording mode (parasternal long-axis view) of the left ventricle (LV) provided the following measurements: diastolic and systolic septal (IVS) and posterior wall thicknesses (LVPW); internal end-diastolic (LVEDD) and end-systolic diameters (LVESD); and heart rate. Each set of measurements was obtained from the same cardiac cycle. At least 3 sets of measurements were obtained from 3 different cardiac cycles. LV fractional shortening (FS) was calculated using the formula: (LVEDD−LVESD)/LVEDD×100. LV myocardial volume (LVV), LV end-diastolic volume (EDV), and end-systolic volume (ESV) were calculated using a half-ellipsoid model of the LV. From these volumes, LV ejection fraction (EF) was calculated using, the formula: (EDV−ESV)/EDV×100. H/R ratio was calculated by the formula (PWThd+IVSThd)/LVEDd."}, "[1]": {"details": "NR diet, echocardiography D45 to D47"}}}
{"smiles": "NC(=O)c1ccc[n+]([C@@H]2O[C@H](CO)[C@@H](O)[C@H]2O)c1", "note": "[NR, nicotinamide riboside]", "values": [{"measurement": "H/R ratio", "setting": "control mice", "value": "slightly increased"}, {"measurement": "LV ejection fraction (LVEF)", "setting": "SRF^HKO mice; NR diet 0.22% from D5, echocardiography D45 to D47, ± S.D, non-treated SRF HKO 48.1, control mice 73.5", "value": "64.8%±8.2"}, {"measurement": "LV contractile functions (LVEF and FS)", "setting": "SRF^HKO mice; NR diet, D45 to D47", "value": "clearly protected"}, {"measurement": "changes in stroke volume or cardiac output", "setting": "SRF^HKO mice; NR diet, D45 to D47", "value": "not significant"}, {"measurement": "dilatation of LV in systole and diastole", "setting": "SRF^HKO mice; NR diet, D45 to D47", "value": "fully protected"}, {"measurement": "reduction of the H/R ratio (eccentric remodeling)", "setting": "SRF^HKO mice; NR diet, D45 to D47", "value": "fully prevented"}, {"measurement": "thinning of the LV wall in systole and diastole", "setting": "SRF^HKO mice; NR diet, D45 to D47, more efficiently at posterior wall than interventricular septum", "value": "reduced the thinning"}, {"measurement": "LV mass index", "setting": "SRF^HKO mice; [1]", "value": "did not induce any change"}, {"measurement": "heart rate", "setting": "SRF^HKO mice; [1]", "value": "did not induce any change"}]}
